Results taken from PubChem BioAssay (NCI).
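Tested at 5 concentrations; 48 h exposure; 96-well plates; endpoints linearly interpolated, else capped at highest concentration. TGI marks complete inhibition of growth.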

Columns and labels:
Test in all cases: growth of human tumour cells (NCI), 48 h
[1] = tested on: 786-0 renal
[2] = tested on: A498 renal
[3] = tested on: A549 NSCLC
[4] = tested on: ACHN renal
[5] = tested on: BT-549 breast
[6] = tested on: CAKI-1 renal
[7] = tested on: CCRF-CEM leukemia
[8] = tested on: COLO 205 colon
[9] = tested on: DU-145 prostate
[10] = tested on: EKVX NSCLC
[11] = tested on: HCC-2998 colon
[12] = tested on: HCT-116 colon
[13] = tested on: HCT-15 colon
[14] = tested on: HL-60(TB) leukemia
[15] = tested on: HOP-62 NSCLC
[16] = tested on: HOP-92 NSCLC
[17] = tested on: HS 578T breast
[18] = tested on: HT29 colon
[19] = tested on: IGROV1 ovarian
[20] = tested on: K-562 leukemia
[21] = tested on: KM12 colon
[22] = tested on: LOX IMVI melanoma
[23] = tested on: M14 melanoma
[24] = tested on: MALME-3M melanoma
[25] = tested on: MCF7 breast
[26] = tested on: MDA-MB-231 breast
[27] = tested on: MDA-MB-435
[28] = tested on: MDA-N
[29] = tested on: MOLT-4 leukemia
[30] = tested on: NCI-H226 lung
[31] = tested on: NCI-H23 lung
[32] = tested on: NCI-H460 lung
[33] = tested on: NCI-H522 lung
[34] = tested on: NCI/ADR-RES ovarian
[35] = tested on: OVCAR-3 ovarian
[36] = tested on: OVCAR-4 ovarian
[37] = tested on: OVCAR-5 ovarian
[38] = tested on: OVCAR-8 ovarian
[39] = tested on: PC-3 prostate
[40] = tested on: RPMI-8226 leukemia
[41] = tested on: RXF 393 renal
[42] = tested on: SF-268 CNS
[43] = tested on: SF-295 CNS
[44] = tested on: SF-539 CNS
[45] = tested on: SK-MEL-2 melanoma
[46] = tested on: SK-MEL-28 melanoma
[47] = tested on: SK-MEL-5 melanoma
[48] = tested on: SK-OV-3 ovarian
[49] = tested on: SN12C renal
[50] = tested on: SNB-19 CNS
[51] = tested on: SNB-75 CNS
[52] = tested on: SR leukemia
[53] = tested on: SW-620 colon
[54] = tested on: T-47D breast
[55] = tested on: TK-10 renal
[56] = tested on: U251 CNS
[57] = tested on: UACC-257 melanoma
[58] = tested on: UACC-62 melanoma
[59] = tested on: UO-31 renal

COc1ccc(N2C(=O)C3c4[nH]c5ccc(OCc6ccccc6)cc5c4C4CCC(C(C)C)CC4C3C2=O)cc1 (configuration not stated) gave a TGI [1] of over 47.6 µM, a TGI [2] of 25.4 µM and a TGI [3] of over 100 µM. It also gave a TGI [4] of over 30.4 µM, a TGI [5] of over 60.4 µM and a TGI [6] of over 59.6 µM. The TGI [7] was 31.3 µM, the TGI [8] was over 100 µM and the TGI [9] was over 100 µM. The TGI [10] was over 100 µM, the TGI [11] was over 100 µM and the TGI [12] was over 100 µM. For the same compound, the TGI [13] was over 100 µM, the TGI [14] was 23.9 µM and the TGI [15] was 36.4 µM. The TGI [16] was 93.2 µM, the TGI [17] was over 49.8 µM and the TGI [18] was over 100 µM. It also gave a TGI [19] of over 80.6 µM, a TGI [20] of over 68.3 µM and a TGI [21] of over 100 µM. It also gave a TGI [22] of over 100 µM, a TGI [23] of over 100 µM and a TGI [24] of over 100 µM. It also gave a TGI [25] of over 100 µM, a TGI [26] of 37.9 µM and a TGI [27] of over 100 µM. For the same compound, the TGI [28] was over 100 µM, the TGI [29] was over 71.7 µM and the TGI [30] was 42.9 µM. It also gave a TGI [31] of over 45.3 µM, a TGI [32] of over 45.8 µM and a TGI [33] of 73.4 µM. It also gave a TGI [34] of over 100 µM, a TGI [35] of over 100 µM and a TGI [36] of over 100 µM. For the same compound, the TGI [37] was over 100 µM, the TGI [38] was over 100 µM and the TGI [39] was over 100 µM. It also gave a TGI [40] of over 100 µM, a TGI [41] of 32.9 µM and a TGI [42] of over 100 µM. For the same compound, the TGI [43] was 29.3 µM, the TGI [44] was 23.5 µM and the TGI [45] was 40.3 µM. For the same compound, the TGI [46] was over 100 µM, the TGI [47] was over 100 µM and the TGI [48] was 43 µM. The TGI [49] was over 100 µM, the TGI [50] was 34.9 µM and the TGI [51] was 10.4 µM. For the same compound, the TGI [52] was 22.9 µM, the TGI [53] was over 100 µM and the TGI [54] was over 100 µM. It also gave a TGI [55] of over 80.4 µM, a TGI [56] of over 73.1 µM and a TGI [57] of over 100 µM. For the same compound, the TGI [58] was over 51.7 µM and the TGI [59] was over 100 µM.

CCc1n[nH]c(=S)n1/N=C\c1ccc(-c2ccccc2[N+](=O)[O-])o1 showed a TGI [1] of over 100 µM, a TGI [2] of over 100 µM and a TGI [3] of over 100 µM. It also gave a TGI [4] of over 100 µM, a TGI [5] of over 100 µM and a TGI [6] of over 100 µM. The TGI [7] was over 100 µM, the TGI [8] was over 100 µM and the TGI [9] was over 100 µM. The TGI [10] was over 100 µM, the TGI [12] was over 100 µM and the TGI [13] was over 100 µM. It also gave a TGI [14] of over 100 µM, a TGI [15] of over 100 µM and a TGI [16] of over 100 µM. It also gave a TGI [17] of over 100 µM, a TGI [18] of over 100 µM and a TGI [19] of over 100 µM. For the same compound, the TGI [20] was over 100 µM, the TGI [21] was over 100 µM and the TGI [22] was over 100 µM. For the same compound, the TGI [23] was over 100 µM, the TGI [24] was over 100 µM and the TGI [25] was over 100 µM. It also gave a TGI [26] of over 100 µM, a TGI [27] of 39.4 µM and a TGI [28] of 39.2 µM. It also gave a TGI [29] of 57.8 µM, a TGI [30] of 54.1 µM and a TGI [31] of over 100 µM. For the same compound, the TGI [33] was over 100 µM, the TGI [34] was 81.5 µM and the TGI [35] was 46.8 µM. For the same compound, the TGI [36] was over 100 µM, the TGI [37] was over 100 µM and the TGI [38] was over 100 µM. The TGI [39] was over 100 µM, the TGI [40] was 88.1 µM and the TGI [41] was over 100 µM. For the same compound, the TGI [42] was over 100 µM, the TGI [43] was over 100 µM and the TGI [44] was over 100 µM. The TGI [45] was over 100 µM, the TGI [47] was 33.7 µM and the TGI [48] was over 100 µM. For the same compound, the TGI [49] was over 100 µM, the TGI [50] was over 100 µM and the TGI [51] was over 100 µM. The TGI [52] was 57.8 µM, the TGI [53] was over 100 µM and the TGI [54] was over 100 µM. It also gave a TGI [55] of over 100 µM, a TGI [56] of over 100 µM and a TGI [57] of over 100 µM. The TGI [58] was over 100 µM and the TGI [59] was over 100 µM.

In the case of CN1CCCC(C(=O)OCC(=O)C2(O)CCC3C4CCC5=CC(=O)CCC5(C)C4C(O)CC32C)C1 (configuration not stated), the TGI [1] is reported as 14.3 µM, the TGI [2] is reported as 31.6 µM and the TGI [3] is reported as over 67.6 µM. For the same compound, the TGI [4] was 34.8 µM, the TGI [5] was 33.6 µM and the TGI [6] was over 65.8 µM. For the same compound, the TGI [7] was 35.6 µM, the TGI [8] was 32.9 µM and the TGI [9] was 45.1 µM. It also gave a TGI [10] of 67.1 µM, a TGI [11] of 22.1 µM and a TGI [12] of 23.5 µM. For the same compound, the TGI [13] was 44.1 µM, the TGI [14] was 11 µM and the TGI [15] was 31 µM. For the same compound, the TGI [16] was over 100 µM, the TGI [17] was over 82.9 µM and the TGI [18] was 27 µM. For the same compound, the TGI [19] was over 60.1 µM, the TGI [20] was 28.7 µM and the TGI [21] was over 69.7 µM. The TGI [22] was 30.6 µM, the TGI [23] was 59.3 µM and the TGI [24] was 33.2 µM. For the same compound, the TGI [25] was over 65.6 µM, the TGI [26] was 19.2 µM and the TGI [27] was 33.4 µM. It also gave a TGI [28] of 26.8 µM, a TGI [29] of 48.4 µM and a TGI [30] of 33.9 µM. For the same compound, the TGI [31] was 46.4 µM, the TGI [32] was 28.5 µM and the TGI [33] was 45.3 µM. The TGI [34] was 55.3 µM, the TGI [35] was 32.8 µM and the TGI [36] was 32.5 µM. The TGI [37] was 52.2 µM, the TGI [38] was 35.3 µM and the TGI [39] was 30.7 µM. It also gave a TGI [40] of 27.8 µM, a TGI [41] of 23.1 µM and a TGI [42] of 46.4 µM. It also gave a TGI [43] of 46.6 µM, a TGI [44] of 4.38 µM and a TGI [45] of 39.3 µM. For the same compound, the TGI [46] was 35.4 µM, the TGI [47] was 41.3 µM and the TGI [48] was 45.6 µM. The TGI [49] was 24 µM, the TGI [50] was 30.9 µM and the TGI [51] was 17.5 µM. It also gave a TGI [52] of 4.47 µM, a TGI [53] of over 79.2 µM and a TGI [54] of 34.5 µM. For the same compound, the TGI [55] was 42.2 µM, the TGI [56] was 16 µM and the TGI [57] was 38.2 µM. For the same compound, the TGI [58] was 37.7 µM and the TGI [59] was 25.4 µM.

CC(=O)Nc1nnc(S(=O)(=O)NC(=S)Nc2ccc(Cl)cc2)s1 gave a TGI [1] of over 100 µM, a TGI [2] of over 100 µM and a TGI [3] of over 100 µM. The TGI [4] was over 100 µM, the TGI [5] was over 100 µM and the TGI [6] was over 100 µM. For the same compound, the TGI [7] was over 100 µM, the TGI [8] was over 100 µM and the TGI [9] was over 100 µM. The TGI [10] was over 100 µM, the TGI [11] was over 100 µM and the TGI [12] was over 100 µM. It also gave a TGI [13] of over 100 µM, a TGI [14] of over 100 µM and a TGI [15] of over 100 µM. It also gave a TGI [16] of over 100 µM, a TGI [17] of over 100 µM and a TGI [18] of over 100 µM. It also gave a TGI [19] of over 100 µM, a TGI [20] of over 100 µM and a TGI [21] of over 100 µM. The TGI [22] was over 100 µM, the TGI [23] was over 100 µM and the TGI [24] was over 100 µM. The TGI [25] was over 100 µM, the TGI [26] was over 100 µM and the TGI [27] was over 100 µM. It also gave a TGI [28] of over 100 µM, a TGI [29] of over 100 µM and a TGI [31] of over 100 µM. For the same compound, the TGI [32] was over 100 µM, the TGI [33] was over 100 µM and the TGI [34] was over 100 µM. The TGI [35] was over 100 µM, the TGI [36] was over 100 µM and the TGI [37] was over 100 µM. The TGI [38] was over 100 µM, the TGI [39] was over 100 µM and the TGI [40] was over 100 µM. It also gave a TGI [41] of over 100 µM, a TGI [42] of over 100 µM and a TGI [43] of over 100 µM. The TGI [44] was over 100 µM, the TGI [45] was over 100 µM and the TGI [46] was over 100 µM. It also gave a TGI [47] of over 100 µM, a TGI [48] of over 100 µM and a TGI [49] of over 100 µM. For the same compound, the TGI [50] was over 100 µM, the TGI [51] was over 100 µM and the TGI [52] was over 100 µM. It also gave a TGI [53] of over 100 µM, a TGI [54] of over 100 µM and a TGI [55] of over 100 µM. For the same compound, the TGI [56] was over 100 µM, the TGI [57] was over 100 µM and the TGI [58] was over 100 µM. For the same compound, the TGI [59] was over 100 µM.
